Experimental data from US20230272077A1, “PD-1 SIGNAL INHIBITOR COMBINATION THERAPY” (KYOTO UNIVERSITY, priority 2015, published 2023).
“Also recorded” adds a separate entry of the source.

Columns and labels:
MC38 = assay: Mouse therapy model, MC38-bearing mice (tumor volume, survival); format: in vivo; conditions: MC38-bearing mice; for animal survival, triple combination of mTOR activator, AMPK activator and PD-L1 antibody / antitumor effect of triple combination of mTOR activator, AMPK activator and PD-L1 antibody: both activators with PD-L1 antibody; for enhancement of antitumor effect of PD-L1 antibody (tumor volume) / survival rate: reagent combined with PD-L1 antibody vs PD-L1 antibody alone; for antitumor effect when administered alone: reagent alone, no PD-L1 antibody, tumor volume
Protocol: (§1) MC38 (5×10^5) and MethA (5×10^5) cells were intradermally injected on the right flank. MC38 was inoculated into C57BL/6 mice and MethA was inoculated into BALB/c mice. For monotherapy, mice were intraperitoneally injected with 150 μg of PD-L1 mouse antibody (1-111A) (prepared by the laboratory of the present inventors) 5 days after the tumor inoculation. Therapy with PD-L1 antibody alone was repeated three times every 5 days. For combination therapy, administration of PD-L1 antibody and chemical agents started 7 days after tumor injection. Chemical agents were injected at a regular interval of 2 days and PD-L1 antibody at a regular interval of 5 days (shown in FIG. 3b). Tumors were measured on every alternate day, and tumor volumes were calculated using the formula for typical ellipsoid, π×(length×breadth×height/6).
(§2) The following chemical reagents were used at the indicated concentrations for combination therapy. AMPK activator: A769662, 6 mg/kg (Abcam); mTOR activator: MHY1485, 3 μg/kg (Sigma-Aldrich); uncoupler: carbonylcyanide-p-trifluoromethoxyphenylhydrazone (FCCP), 1.2 mg/kg (Abcam); uncoupler: 2,4-Dinitrophenol (DNP), 1.7 mg/kg (Aldrich); SIRT1 activator: resveratrol, 0.5 mg/kg (Abcam); ROS scavenger: Mn (III) tetrakis (4-benzoic acid) porphyrin (MnTBAP), 1.25 mg/kg (Calbiochem); ROS generator: tert-butyl hydroperoxide solution (Luperox TBH70X), 200 μL/kg (Sigma-Aldrich); ATP synthase inhibitor: oligomycin, 250 μg/kg (Sigma-Aldrich); paraquat 2 mg/kg (Nakalai Tesque); oltipraz 1.9 mg/kg (Sigma); bezafibrate 1 mg/kg (ChemCruz).
All reagents were freshly prepared just before use. Each reagent was dissolved in the solvent indicated in the instructions. Note that the AMPK activator, mTOR activator, uncouplers and SIRT1 activator were prepared from fresh unused vials in each series of experiments. Dissolved reagents were diluted in PBS, and a 200 l aliquot was injected per mouse.
Murine colon adenocarcinoma MC38 cells (5×10^5) were inoculated into C57BL/6 mice. After 7 days, anti-PD-L1 antibody (1-111A, 150 μg) and AMPK inhibitor (Compound C: 200 μg in BBS, 200 μL) were administered intraperitoneally. Anti-PD-L1 antibody was administered 3 times at a regular interval of 6 days; Compound C (C.C) was administered 7 times at a regular interval 2 days.
MC38 cells (5×10^5) were inoculated into C57BL/6 mice. After 7 days, anti-PD-L1 antibody (1-111A, 150 μg) and PGC-1α/transcription factor complex activator (2-(4-{2-[(4-chlorobenzoyl)amino]ethyl}phenoxy)-2-methylpropanoic acid (bezafibrate): 10 ug in PBS, 200 ul) were administered intraperitoneally. Anti-PD-L1 antibody was administered 3 times at a regular interval of 6 days; bezafibrate was administered 7 times at a regular interval 2 days.

PGC-1α = PGC-1α expression (Western blotting, real-time RT-PCR); format: in vivo, mouse; conditions: combination therapy together with PD-L1 antibody
Protocol: RNA was isolated from CD8^+ T cells or tumor cells with the RNeasy Mini Kit (Qiagen), followed by cDNA synthesis by reverse transcription. Real-time PCR for PGC-1α was performed using the following primers: Forward […] (SEQ ID NO: 1) and Reverse […] (SEQ ID NO: 2). To analyze the expression levels of genes associated with apoptosis and mitochondrial energy metabolism, RT2 Profiler PCR Array Gene Expression Kit PAMM-012Z or PAMM-008Z (Qiagen) was used. The list of genes included in this assay can be found in www.sabiosciences.com/Apoptosis.php.
CD8^+ T cells were isolated using mouse CD8 Microbeads (Miltenyi Biotec). After washing with PBS twice, 2×10^6 cells were solubilized in a lysis buffer containing 30 mM Tris-HCl (pH.7.4), 150 mM NaCl, 10% glycerol, 0.1% SDS, 1% Triton-X-100, 0.05% Na-Doc, 5 mM EDTA (pH.8.0), protease inhibitor mixture (Roche Molecular Biochemicals) and phosphatase inhibitors (Nacalai Tesque). After measurement of protein concentrations by DC protein assay (Bio-Rad), 4 μg of proteins was mounted on 4 to 20% gradient Mini-PROTEAN TGX Gels (Bio-Rad) and electroblotted onto nitrocellulose membranes, which were then incubated in a blocking buffer of TBS containing 1% BSA. Primary antibody incubations were carried out overnight at 4° C. in blocking buffer. After washing, secondary antibody incubations were carried out at room temperature for 40 min in blocking buffer. Blots were developed with enhanced chemiluminescence (Amersham Pharmacia). Primary antibodies recognizing the following proteins were used: Phospho-mTOR (P-mTOR) (Cat #5536), Phospho-AMPKa (P-AMPK) (#2535), Phospho-p70 S6 Kinase (P-S6K) (#9205), 4E-BP1 (#9644), Phospho-Acetyl-CoA Carboxylase (P-ACC) (#3661) and SIRT1 (#9475). All the primary antibodies were obtained from Cell Signaling Technology. An antibody recognizing PGC-1α (SC-13067) was obtained from Santa Cruz.

MethA = assay: Mouse therapy model, MethA-transplanted BALB/c mice (tumor volume); format: in vivo; conditions: MethA in BALB/c mice, combined with PD-L1 antibody
Protocol: as §1, §2
MethA cells (5×10^5) were inoculated into BALB/c mice. After 7 days, anti-PD-L1 antibody (1-111A, 80 μg) and Foxo1 inhibitor (5-amino-7-(cyclohexylamino)-1-ethyl-6-fluoro-4-oxo-1,4-dihydroquinoline-3-carboxylic acid, Calbiochem) (2 mg/kg) were administered intraperitoneally.
Fibrosarcoma MethA (Cell Resource Center for Biomedical Research) cells (5×10^5) were inoculated into BALB/c mice. After 7 days, anti-PD-L1 antibody (1-111A, 60 μg) and Aminoleban (Otsuka Pharmaceutical, 400 μl/mouse) were administered.

tumor cells = assay: Phenotypic and transcription profile analysis of tumor cells from mice treated with reagent alone; set-up: species or system mouse; conditions: tumor cells from mice treated with reagent alone in vivo
Description: FIG. 12. […] After enzymatic digestion, tumor cells were sorted with a cell isolation kit capable of excluding non-tumor cells. The isolated tumor cells were further purified with Aria and used in the following experiments. b) Tumor cells were stained with antibodies targeting PD-L1, MHC class I, CD155 (ligand of TIGIT), and VISTA or with dyes for mitochondrial mass, membrane potential, and superoxide. c) Expression levels of genes associated with mitochondrial energy metabolism and apoptosis were examined using RT^2 profiler PCR Kit.
For analyzing draining lymph nodes, cells from axillary, brachial, and inguinal lymph nodes on the right side of tumor-inoculated mice were harvested and mixed. Averaged cell numbers per one lymph node were used as absolute cell numbers. For tumor analysis, tumor tissues were minced into 2- to 3-mm pieces with scissors and digested with collagenase type IV (Thermo Fisher Scientific) using a gentle MACS Dissociator (Miltenyi Biotec). The numbers of tumor cells per mg were used as absolute numbers. Tumor cells were isolated from digested tumor tissues using a Tumor Cell Isolation Kit, mouse (Miltenyi Biotec). This kit purifies tumor cells by excluding lymphocytes, red blood cells, fibroblasts, endothelial cells and tumor-associated stromal cells. The resultant tumor cell population was further isolated/purified with FACS Aria (BD Biosciences). […]

IFN-γ = assay: Intracellular IFN-γ staining of CD8+ T cells from digested tumor tissues; format: in vivo, mouse; conditions: CD8+ T cells in tumors; combined with PD-L1 antibody
Protocol: (§3) FIG. 15. […] Data represent the means±SEM of five mice. *p<0.05, **p<0.01, one-way ANOVA.
(§4) The following antibodies recognizing the indicated antigens were used: CD44 (1M7), CD45.2 (104), CD45.1 (A20), CD8 (53-6.7), CD62L (MEL-14), T-bet (4B/O) and IFN-7 (XMG1.2), MHC class I (AF6-88.5), CD155 (Tx56) and VISTA (MIH63) from BioLegend; p-AMPK (EPR5683) from Ancam; p-mTOR (MRRBY), Eomes (Danllmag) and PD-L1 (M1H5) from eBioscience. All flow cytometry experiments were performed on a FACS Canto II (BD Biosciences) and analyzed using FlowJo software (FLOWJO, LLC). For assessment of intracellular phosphoproteins, cells were permeabilized with 0.5% Triton-X and fixed with 1.5% PFA before staining. Determination of mitochondrial mass, membrane potential, mitochondrial superoxide and cellular ROS was performed using MitoTracker Green, Mito-Tracker Deep Red, MitoSOX Red, and CellROX Green reagents, respectively (all from Life Technologies). These dyes were added to cells to a final concentration of 0.125 μM, 0.125 μM, 5.0 μM and 0.625 μM, respectively, and incubated at 37° C. in a 5% CO2 humidified incubator for 30 min.

T-bet and Eomes = T-bet and Eomes expression by flow cytometry in DLN CD8+ T cells; format: in vivo, mouse; conditions: combined with PD-L1 antibody
Protocol: as §3, §4

N#Cc1c(O)c2c(-c3ccc(-c4ccccc4O)cc3)csc2[nH]c1=O [AMPK activator, 6,7-dihydro-4-hydroxy-3-(2′-hydroxy[1,1′-biphenyl]-4-yl)-6-oxo-thieno[2,3-b]pyridine-5-carbonitrile]
animal survival, triple combination of mTOR activator, AMPK activator and PD-L1 antibody (MC38): improved animal survival | antitumor effect of triple combination of mTOR activator, AMPK activator and PD-L1 antibody (MC38): further enhanced the effect of PD-L1 antibody | enhancement of antitumor effect of PD-L1 antibody (tumor volume) (MC38): moderately augmented the efficacy of PD-1 blockade therapy in the early phase | expression levels of PGC-1α protein and mRNA (PGC-1α): increased

CCn1cc(C(=O)O)c(=O)c2c(N)c(F)c(NC3CCCCC3)cc21 [Foxo1 inhibitor, 5-amino-7-(cyclohexylamino)-1-ethyl-6-fluoro-4-oxo-1,4-dihydroquinoline-3-carboxylic acid]
enhancement of antitumor effect of PD-L1 antibody (tumor volume) (MethA): enhances the efficacy of anti-PD-L1 antibody therapy | enhancement of antitumor effect of PD-L1 antibody (tumor volume) (MethA; listed as AS1842856): Synergistic effect

CC(C)(C)OO [Luperox, tert-butyl hydroperoxide]
antitumor activity of triple combination of PD-L1 antibody, DNP and Luperox (MC38; DNP and Luperox both with PD-L1 antibody): stronger antitumor activity; also recorded: Antitumor effect is enhanced | antitumor effect when administered alone (MC38): no antitumor activity was observed | enhancement of antitumor effect of PD-L1 antibody (tumor volume) (MC38): remarkably enhanced the antitumor effect; also recorded: Synergistic effect | survival rate (MC38): improved the survival rate | changes in immune-regulatory surface markers and transcriptional profiles of tumor cells (tumor cells): no significant changes; also recorded: little effect on tumor cells in vivo

O=C(O)c1ccc(-c2c3nc(c(-c4ccc(C(=O)O)cc4)c4ccc([n-]4)c(-c4ccc(C(=O)O)cc4)c4nc(c(-c5ccc(C(=O)O)cc5)c5ccc2[n-]5)C=C4)C=C3)cc1.[Mn+3] [MnTBAP, Mn (III) tetrakis (4-benzoic acid) porphyrin]
effect of ROS scavenger on combination therapy using PD-L1 antibody and uncouplers (MC38; added to PD-L1 antibody + FCCP or DNP): inhibited

Oc1ccc(/C=C/c2cc(O)cc(O)c2)cc1 [Resveratrol, trans-3,5,4′-trihydroxystilbene]
antitumor effect when administered alone (MC38): no tumor growth inhibitory effect was observed | enhancement of antitumor effect of PD-L1 antibody (tumor volume) (MC38): remarkably reduced tumor sizes; also recorded: remarkable tumor inhibitory effect | survival rate (MC38): improved the survival rate

CC(C)(Oc1ccc(CCNC(=O)c2ccc(Cl)cc2)cc1)C(=O)O [bezafibrate, 2-(4-{2-[(4-chlorobenzoyl)amino]ethyl}phenoxy)-2-methylpropanoic acid]
enhancement of antitumor effect of PD-L1 antibody (tumor volume) (MC38): enhanced the tumor growth inhibitory effect of PD-L1 antibody; also recorded: synergize with PD-L1 antibody; also recorded: Synergistic effect | survival rate (MC38): improved the survival rate | enhancement of antitumor effect of PD-L1 antibody (tumor volume) (MC38; listed as PGC-1α/transcription factor complex activator): enhances the efficacy of anti-PD-L1 antibody therapy | IFN-γ production (IFN-γ): increased; also recorded: up-regulated | Eomes expression (T-bet and Eomes): reduced Eomes | T-bet expression (T-bet and Eomes): increased T-bet; also recorded: activated T-bet; also recorded: up-regulated

O=[N+]([O-])c1ccc(Nc2nc(N3CCOCC3)nc(N3CCOCC3)n2)cc1 [mTOR activator, 4,6-Di-4-morpholinyl-N-(4-nitrophenyl)-1,3,5-triazin-2-amine]
animal survival, triple combination of mTOR activator, AMPK activator and PD-L1 antibody (MC38): improved animal survival | antitumor effect of triple combination of mTOR activator, AMPK activator and PD-L1 antibody (MC38): further enhanced the effect of PD-L1 antibody | enhancement of antitumor effect of PD-L1 antibody (tumor volume) (MC38): moderately augmented the efficacy of PD-1 blockade therapy in the early phase | expression levels of PGC-1α protein and mRNA (PGC-1α): increased

C[n+]1ccc(-c2cc[n+](C)cc2)cc1.[Cl-].[Cl-] [paraquat, 1,1′-dimethyl-4,4′-bipyridinium dichloride]
enhancement of antitumor effect of PD-L1 antibody (tumor volume) (MC38): enhanced the effect for PD-1 blockade | enhancement of antitumor effect of PD-L1 antibody (tumor volume) (MethA): enhanced the antitumor effect of PD-L1 antibody
